Measurements published in ChEMBL document CHEMBL3425413, “Structure-based design and synthesis of covalent-reversible inhibitors to overcome drug resistance in EGFR” (Bioorg Med Chem, 2015).
Activity calls are given as the source filed them. No cut-off for these calls is given here.

Experiments:
[1] = target: Epidermal growth factor receptor (Homo sapiens, UniProt P00533); assay: Inhibition of wild type N-terminal His6-tagged human EGFR kinase domain (702 to 1016 residues) expressed in Sf9 cells pre-incubated for 30 mins before ATP and substrate addition by homogeneous time-resolved FRET assay
Epidermal growth factor receptor (Homo sapiens, UniProt P00533), sequence (P00533 whole entry, the tested form may be a part): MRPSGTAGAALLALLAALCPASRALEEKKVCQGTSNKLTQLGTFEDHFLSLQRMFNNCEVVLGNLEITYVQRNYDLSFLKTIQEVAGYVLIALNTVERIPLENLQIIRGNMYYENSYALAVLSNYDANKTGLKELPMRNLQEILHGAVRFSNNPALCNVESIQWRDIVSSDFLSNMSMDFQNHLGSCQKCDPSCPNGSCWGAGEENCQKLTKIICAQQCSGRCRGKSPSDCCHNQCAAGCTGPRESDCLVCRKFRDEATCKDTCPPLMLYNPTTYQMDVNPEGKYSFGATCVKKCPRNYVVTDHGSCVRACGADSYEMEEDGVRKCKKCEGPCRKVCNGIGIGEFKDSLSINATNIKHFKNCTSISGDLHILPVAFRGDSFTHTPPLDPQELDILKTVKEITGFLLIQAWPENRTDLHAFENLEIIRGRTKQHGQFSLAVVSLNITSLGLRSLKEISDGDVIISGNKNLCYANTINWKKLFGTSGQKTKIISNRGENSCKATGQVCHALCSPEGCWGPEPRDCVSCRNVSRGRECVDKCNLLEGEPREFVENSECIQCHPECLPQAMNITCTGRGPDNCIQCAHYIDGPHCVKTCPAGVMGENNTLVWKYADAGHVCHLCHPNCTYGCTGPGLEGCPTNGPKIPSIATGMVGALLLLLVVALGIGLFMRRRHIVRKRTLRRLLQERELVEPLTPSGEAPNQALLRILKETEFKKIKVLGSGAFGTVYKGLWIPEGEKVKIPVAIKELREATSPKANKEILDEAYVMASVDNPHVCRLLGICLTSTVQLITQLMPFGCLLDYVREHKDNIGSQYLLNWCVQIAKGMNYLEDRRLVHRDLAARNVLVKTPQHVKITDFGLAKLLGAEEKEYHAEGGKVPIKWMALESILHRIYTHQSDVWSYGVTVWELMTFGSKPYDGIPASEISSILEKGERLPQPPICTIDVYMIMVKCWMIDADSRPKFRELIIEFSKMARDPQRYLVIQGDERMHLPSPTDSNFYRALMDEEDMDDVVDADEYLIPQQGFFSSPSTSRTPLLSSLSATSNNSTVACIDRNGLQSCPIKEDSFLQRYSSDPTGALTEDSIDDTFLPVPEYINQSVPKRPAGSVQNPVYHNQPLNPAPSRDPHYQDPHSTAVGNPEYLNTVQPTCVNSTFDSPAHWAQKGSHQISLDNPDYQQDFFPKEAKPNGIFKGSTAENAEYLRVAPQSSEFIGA

[2] = target: Epidermal growth factor receptor (Homo sapiens, UniProt P00533, L858R); assay: Inhibition of GST-tagged human recombinant EGFR catalytic domain (668 to 1210 amino acids) L858R mutant expressed in Sf9 cells pre-incubated for 30 mins before ATP and substrate addition by homogeneous time-resolved FRET assay
Epidermal growth factor receptor (Homo sapiens, UniProt P00533, L858R), sequence (P00533 25-1210 L858R limits assumed): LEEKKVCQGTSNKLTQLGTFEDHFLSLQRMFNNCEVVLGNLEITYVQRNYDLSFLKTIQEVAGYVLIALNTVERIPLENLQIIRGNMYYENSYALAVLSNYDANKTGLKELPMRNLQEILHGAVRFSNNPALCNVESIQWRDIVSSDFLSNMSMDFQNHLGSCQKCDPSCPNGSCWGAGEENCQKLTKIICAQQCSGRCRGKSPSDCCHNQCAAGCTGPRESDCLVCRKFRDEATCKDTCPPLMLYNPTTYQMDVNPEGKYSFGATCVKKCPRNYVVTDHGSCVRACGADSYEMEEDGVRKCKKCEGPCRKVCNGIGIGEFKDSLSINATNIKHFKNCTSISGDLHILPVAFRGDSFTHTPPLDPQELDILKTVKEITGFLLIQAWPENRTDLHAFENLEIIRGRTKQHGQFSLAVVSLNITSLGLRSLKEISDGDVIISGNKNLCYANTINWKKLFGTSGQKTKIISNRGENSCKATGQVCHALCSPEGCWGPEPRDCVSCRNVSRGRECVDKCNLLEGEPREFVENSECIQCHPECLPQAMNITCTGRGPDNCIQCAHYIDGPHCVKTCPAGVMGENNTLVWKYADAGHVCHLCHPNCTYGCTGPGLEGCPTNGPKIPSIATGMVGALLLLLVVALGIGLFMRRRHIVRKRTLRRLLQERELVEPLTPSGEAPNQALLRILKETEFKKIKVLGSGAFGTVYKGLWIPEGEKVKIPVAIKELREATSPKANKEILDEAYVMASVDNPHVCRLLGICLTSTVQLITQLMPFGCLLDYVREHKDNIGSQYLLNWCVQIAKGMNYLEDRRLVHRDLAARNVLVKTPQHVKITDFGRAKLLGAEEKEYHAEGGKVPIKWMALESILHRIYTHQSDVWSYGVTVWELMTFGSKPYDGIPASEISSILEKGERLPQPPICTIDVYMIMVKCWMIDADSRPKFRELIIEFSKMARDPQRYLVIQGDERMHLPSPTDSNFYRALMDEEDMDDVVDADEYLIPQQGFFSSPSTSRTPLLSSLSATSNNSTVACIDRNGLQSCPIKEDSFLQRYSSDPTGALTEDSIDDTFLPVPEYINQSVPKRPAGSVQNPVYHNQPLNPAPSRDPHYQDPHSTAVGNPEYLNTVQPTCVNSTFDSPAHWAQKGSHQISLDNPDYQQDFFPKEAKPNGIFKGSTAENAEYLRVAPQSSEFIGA

[3] = target: Epidermal growth factor receptor (Homo sapiens, UniProt P00533, L858R/T790M); assay: Inhibition of GST-tagged human recombinant EGFR catalytic domain (668 to 1210 amino acids) T790M/L858R mutant expressed in Sf9 cells pre-incubated for 30 mins before ATP and substrate addition by homogeneous time-resolved FRET assay
Epidermal growth factor receptor (Homo sapiens, UniProt P00533, L858R/T790M), sequence (P00533 25-1210 T790M/L858R limits assumed): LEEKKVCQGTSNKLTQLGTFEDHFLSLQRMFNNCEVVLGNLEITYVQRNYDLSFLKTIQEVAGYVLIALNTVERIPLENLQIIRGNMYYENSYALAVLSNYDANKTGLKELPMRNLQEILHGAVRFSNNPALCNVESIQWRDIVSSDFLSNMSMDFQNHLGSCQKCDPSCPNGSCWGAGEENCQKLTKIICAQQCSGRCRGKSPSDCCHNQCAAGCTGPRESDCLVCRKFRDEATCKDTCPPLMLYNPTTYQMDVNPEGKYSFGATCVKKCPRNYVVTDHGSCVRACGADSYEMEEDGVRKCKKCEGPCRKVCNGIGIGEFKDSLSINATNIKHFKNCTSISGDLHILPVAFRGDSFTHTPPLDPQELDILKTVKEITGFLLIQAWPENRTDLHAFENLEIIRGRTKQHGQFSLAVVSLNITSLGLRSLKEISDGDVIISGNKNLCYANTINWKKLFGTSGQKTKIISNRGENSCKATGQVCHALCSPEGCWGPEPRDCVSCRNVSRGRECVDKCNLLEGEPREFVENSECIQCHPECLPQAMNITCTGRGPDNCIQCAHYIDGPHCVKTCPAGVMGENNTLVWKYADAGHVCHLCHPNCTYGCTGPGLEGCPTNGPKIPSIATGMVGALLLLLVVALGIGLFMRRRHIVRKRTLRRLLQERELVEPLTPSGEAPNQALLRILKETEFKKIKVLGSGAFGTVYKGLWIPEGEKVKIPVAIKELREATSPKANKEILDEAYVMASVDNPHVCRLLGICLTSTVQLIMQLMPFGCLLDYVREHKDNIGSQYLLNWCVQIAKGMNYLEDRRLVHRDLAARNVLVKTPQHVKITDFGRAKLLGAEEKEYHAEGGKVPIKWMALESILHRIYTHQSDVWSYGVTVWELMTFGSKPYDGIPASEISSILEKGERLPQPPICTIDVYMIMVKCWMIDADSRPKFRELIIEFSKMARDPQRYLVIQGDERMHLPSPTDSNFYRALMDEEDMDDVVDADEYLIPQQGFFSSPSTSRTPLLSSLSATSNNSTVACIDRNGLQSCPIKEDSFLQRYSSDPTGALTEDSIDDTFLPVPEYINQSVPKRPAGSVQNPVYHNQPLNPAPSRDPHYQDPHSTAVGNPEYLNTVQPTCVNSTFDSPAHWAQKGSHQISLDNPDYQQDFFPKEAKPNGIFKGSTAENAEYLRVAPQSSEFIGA

[4] = system: Proto-oncogene tyrosine-protein kinase Src (Homo sapiens), P12931 [T341M,S348C]; assay: Induction of covalent modification of c-Src kinase domain (251 to 533 residues) T338M/S345C mutant (unknown origin) at 100 uM incubated for 1 hr by mass spectrometry method
[5] = target: Proto-oncogene tyrosine-protein kinase Src (Homo sapiens) (UniProt P12931); assay: Induction of covalent modification of wild type c-Src kinase domain (251 to 533 residues) (unknown origin) at 100 uM incubated for 1 hr by mass spectrometry method
[6] = system: Proto-oncogene tyrosine-protein kinase Src (Homo sapiens), P12931 [T341M,S348C]; assay: Induction of covalent modification of c-Src kinase domain (251 to 533 residues) T338M/S345C mutant (unknown origin) assessed as protein mass increase at 100 uM incubated for 1 hr by mass spectrometry method

Structure (SMILES)	IC50 [1] [nM]	IC50 [2] [nM]	IC50 [3] [nM]	Activity [4]	Activity [5]	Activity [6] [Da]
COc1cc(N2CCN(C)CC2)ccc1Nc1ncc(Cl)c(Oc2cccc(NC(=O)/C(=C/c3ccc(F)cc3)C(F)(F)F)c2)n1	> 10000	> 10000	6300	–	–	–
COc1cc(N2CCN(C)CC2)ccc1Nc1ncc(Cl)c(Oc2cccc(NC(C)=O)c2)n1	> 10000	490	180	–	–	–
COc1cc(N2CCN(C)CC2)ccc1Nc1ncc(Cl)c(Oc2cccc(NC(=O)/C(C#N)=C/C(C)C)c2)n1	> 10000	1200	800	–	–	–
COc1cc(N2CCN(C)CC2)ccc1Nc1ncc(Cl)c(Oc2cccc(NC(=O)/C(C#N)=C/C3CCCC3)c2)n1	> 10000	2200	1200	–	–	–
COc1cc(N2CCN(C)CC2)ccc1Nc1ncc(Cl)c(Oc2cccc(NC(=O)/C(C#N)=C/C(C)(C)C)c2)n1	> 10000	1300	400	–	–	–
COc1cc(N2CCN(C)CC2)ccc1Nc1ncc(Cl)c(Oc2cccc(NC(=O)/C(C#N)=C/c3cccc([N+](=O)[O-])c3)c2)n1	> 10000	1800	720	–	–	–
COc1cc(N2CCN(C)CC2)ccc1Nc1ncc(Cl)c(Oc2cccc(NC(=O)/C(C#N)=C/c3ccco3)c2)n1	> 10000	1300	330	–	–	–
COc1cc(N2CCN(C)CC2)ccc1Nc1ncc(Cl)c(Oc2cccc(NC(=O)/C(C#N)=C/c3ccc(N(C)C)cc3)c2)n1	> 10000	> 10000	> 10000	–	–	–
COc1cc(N2CCN(C)CC2)ccc1Nc1ncc(Cl)c(Oc2cccc(NC(=O)/C(C#N)=C/C3CC3)c2)n1	–	–	–	–	Active	560

Further lines, results first:

IC50 [1] [nM]	IC50 [2] [nM]	IC50 [3] [nM]	Activity [4]	Activity [5]	Activity [6] [Da]	Structure (SMILES)
> 10000	1800	940	–	–	–	COc1cc(N2CCN(C)CC2)ccc1Nc1ncc(Cl)c(Oc2cccc(NC(=O)/C(C#N)=C/c3ccc(C#N)cc3)c2)n1
> 10000	6300	2200	–	–	–	COc1cc(N2CCN(C)CC2)ccc1Nc1ncc(Cl)c(Oc2cccc(NC(=O)/C(=C/c3ccc(N(C)C)cc3)C(F)(F)F)c2)n1
> 10000	2300	1200	–	–	–	COc1cc(N2CCN(C)CC2)ccc1Nc1ncc(Cl)c(Oc2cccc(NC(=O)/C(C#N)=C/c3ccc([N+](=O)[O-])cc3)c2)n1
> 10000	2000	770	inactive	inactive	–	COc1cc(N2CCN(C)CC2)ccc1Nc1ncc(Cl)c(Oc2cccc(NC(=O)CCC3CC3)c2)n1
7000	540	120	–	–	–	COc1cc(N2CCN(C)CC2)ccc1Nc1ncc(Cl)c(Oc2cccc(NC(=O)/C(C#N)=C/c3ccc(F)cc3)c2)n1
8700	150	37	–	–	–	COc1cc(N2CCN(C)CC2)ccc1Nc1ncc(Cl)c(Oc2cccc(NC(=O)/C(C#N)=C/c3ccncc3)c2)n1
4800	830	510	–	–	–	COc1cc(N2CCN(C)CC2)ccc1Nc1ncc(Cl)c(Oc2cccc(NC(=O)/C(C#N)=C/c3ccc(SC)cc3)c2)n1
5600	2800	830	–	–	537	COc1cc(N2CCN(C)CC2)ccc1Nc1ncc(Cl)c(Oc2cccc(NC(=O)/C=C/C3CC3)c2)n1
